Legend:
[1] = men / humans; ref [5], [30] (KP-10), ref [5] (KP-54); cited from earlier work
Excerpt: It should be noted, however that the RIA used to measure KP-54 may also detect shorter breakdown products of this protein that might be biologically inert. It is likely that the lack of GnRH neuronal activation and sustained LH release by KP-10 is mainly due to its instability. It is noteworthy that we failed ...

[2] = Study 4: pharmacokinetics of plasma kisspeptin after i.p. injection (radioimmunoassay); type: in vivo, mouse; conditions: male mice, 1 nmol i.p.
Experimental: Male mice received a single i.p. injection of 1 nmol KP-10 or 1 nmol KP-54. 100 μl of blood was collected from the lateral tail vein from groups of mice (n = 4) for each time point (0, 1 min, 2 min, 5 min, 10 min, 30 min, 60 min and 120 min). Terminal bleeds were collected from the vena cava. Blood was mixed with 5 μl EDTA, centrifuged at 10,000 x g for 10 min at 4°C to obtain the plasma fraction, and stored at -20°C until assayed. Kisspeptin concentrations were measured using an established in house competitive radioimmunoassay (RIA, [5]. Briefly, this RIA uses a sheep polyclonal antibody (GQ2), raised against human KP-54, which cross-reacts with human KP-54, KP-14 and KP-10.
3–5 month old wild-type (129S6/SvEv) male mice were used in this study. The mice were housed in open cages on a 12 hour light cycle (lights on at 0700 h) at a controlled temperature (22°C), and were provided with food and water ad libitum. All experiments were performed under the authority of a United Kingdom Home Office Project License and were approved by a Cambridge Animal Ethics Committee.

plasma LH levels = assay: Study 1: plasma LH after a single i.p. injection of kisspeptin; type: in vivo, mouse; conditions: male mice, single i.p. injection of 1 nmol, ELISA, mean ± s.e.m.
Experimental: Male mice received a single intraperitoneal (i.p.) injection of 100 μl of PBS (vehicle control; 137 mM NaCl, 2.7 mM KCl, 10 mM Na2HPO4, 1.8mM KH2PO4, pH 7.4), KP-10 (1 nmol), or KP-54 (1 nmol) in PBS and LH levels in the plasma measured at 10 min and 2 h after treatment to compare early and late responses points. We chose the 10 min point as some studies have shown that KP-10 injection results in maximal LH secretion after 10–15 min [16, 18]. 100 μl of blood was collected from a tail vein 10 min after injection, mixed with 5 μl EDTA and centrifuged at 10,000 x g for 10 min at 4°C. The plasma supernatant was stored at -20°C until assayed. Two hours after injection, mice were deeply anaesthetized with pentobarbital (100mg/kg i.p.), ~300 μl of blood was rapidly collected from the vena cava and processed as described above. Finally the mice were perfused intracardially with 20 ml of 4% paraformaldehyde in PBS. Brains were removed and incubated for 1 h in the same fixative as for perfusion and placed in PBS for sectioning and immunohistochemistry processing.
3–5 month old wild-type (129S6/SvEv) male mice were used in this study. The mice were housed in open cages on a 12 hour light cycle (lights on at 0700 h) at a controlled temperature (22°C), and were provided with food and water ad libitum. […]

CC[C@H](C)[C@H](NC(=O)[C@H](CCC(N)=O)NC(=O)[C@H](CCCNC(=N)N)NC(=O)[C@H](CO)NC(=O)[C@H](Cc1c[nH]cn1)NC(=O)[C@@H]1CCCN1C(=O)[C@H](C)NC(=O)[C@H](CO)NC(=O)[C@H](CC(C)C)NC(=O)CNC(=O)[C@@H]1CCCN1C(=O)[C@H](CCC(N)=O)NC(=O)[C@H](CCC(N)=O)NC(=O)[C@H](CCCNC(=N)N)NC(=O)[C@H](CO)NC(=O)CNC(=O)[C@H](CO)NC(=O)[C@H](CO)NC(=O)[C@H](CCC(=O)O)NC(=O)[C@@H]1CCCN1C(=O)[C@@H]1CCCN1C(=O)[C@@H]1CCCN1C(=O)[C@H](CO)NC(=O)[C@H](CC(C)C)NC(=O)[C@H](CO)NC(=O)[C@@H](NC(=O)CN)[C@@H](C)O)C(=O)N1CCC[C@H]1C(=O)N[C@@H](C)C(=O)N1CCC[C@H]1C(=O)N[C@@H](CCC(N)=O)C(=O)NCC(=O)N[C@@H](C)C(=O)N[C@H](C(=O)N[C@@H](CC(C)C)C(=O)N[C@H](C(=O)N[C@@H](CCC(N)=O)C(=O)N[C@@H](CCCNC(=N)N)C(=O)N[C@@H](CCC(=O)O)C(=O)N[C@@H](CCCCN)C(=O)N[C@@H](CC(=O)O)C(=O)N[C@@H](CC(C)C)C(=O)N1CCC[C@H]1C(=O)N[C@@H](CC(N)=O)C(=O)N[C@@H](Cc1ccc(O)cc1)C(=O)N[C@@H](CC(N)=O)C(=O)N[C@@H](Cc1c[nH]c2ccccc12)C(=O)N[C@@H](CC(N)=O)C(=O)N[C@@H](CO)C(=O)N[C@@H](Cc1ccccc1)C(=O)NCC(=O)N[C@@H](CC(C)C)C(=O)N[C@@H](CCCNC(=N)N)C(=O)N[C@@H](Cc1ccccc1)C(N)=O)C(C)C)C(C)C [KP-54]
half-life in the blood stream in humans [1]: 28 min | level at time molar at 0.5 h ([2]; 129S6/SvEv, mouse, plasma, ip, RIA, mean ± SEM, n = 4, read-out: plasma kisspeptin level at 30 min post-injection): 13.2 ± 4.36 nM | level at time molar at 1 h ([2]; 129S6/SvEv, mouse, plasma, ip, RIA, mean ± SEM, n = 4, read-out: plasma kisspeptin level at 60 min post-injection): 5.03 ± 0.787 nM | level at time molar at 2 h ([2]; 129S6/SvEv, mouse, plasma, ip, RIA, mean ± SEM, n = 4, read-out: plasma kisspeptin level at 120 min post-injection): 1.19 ± 0.33 nM | peak (maximum) plasma kisspeptin level ([2]; RIA (GQ2 antibody), mean ± SEM, n = 4 per time point): 12292 ± 2655 pmol/L | time of peak plasma kisspeptin level post-injection ([2]; RIA, n = 4 per time point): 5 min | plasma half-life ([2]; estimated from RIA plasma levels, RIA recognises all forms of Kp, may include breakdown products): around 32 min | fraction of the injected peptide entering the bloodstream after intraperitoneal injection ([2]; assuming a total blood volume of approximately 5 ml): ~6% | plasma LH level 10 min post-injection (plasma LH levels; tail vein blood, n = 8, PBS 0.06 ± 0.04): 5.70 ± 0.69 ng/mL | plasma LH level 2 hours post-injection (plasma LH levels; vena cava blood, n = 8): 6.42 ± 1.74 ng/mL

— article PMC5413024, “Mechanistic insights into the more potent effect of KP-54 compared to KP-10 in vivo” (PLoS ONE, 2017)
